Source: patent publication US12312370B2, “Immunoproteasome inhibitors” (Principia Biopharma Inc., priority 2017, dated 2025)
pIC50: −log10 of the molar value.

Key:
[1] = biological target: constitutive proteasome β5c unit (Homo sapiens, UniProt P28074); assay: Caliper-based proteasome enzymatic activity assay, β5c; type: biochemical; settings: human recombinant constitutive proteasome 0.3 nM, FAM-labeled peptide substrate 1 μM, rt 3 h; read-out: β5c subunit IC50
[2] = biological target: immunoproteasome LMP7/B5i subunit (Homo sapiens, UniProt P28062); assay: Caliper-based proteasome enzymatic activity assay, LMP7; type: biochemical; settings: human recombinant immunoproteasome 0.3 nM, FAM-labeled peptide substrate 1 μM, rt 3 h; read-out: LMP7 subunit IC50

SMILES	pIC50 [1]	pIC50 [2]
CC1(OC(=O)N[C@@H](Cc2ccc(F)cc2)B(O)O)CCCN(C(=O)C(C#N)=CC(C)(C)N2CCC(F)(F)C2)C1 (mixture of isomers) [Example 94, ((1R)-1-((((1-(2-cyano-4-(3,3-difluoropyrrolidin-1-yl)-4-methylpent-2-enoyl)-3-methylpiperidin-3-yl)oxy)carbonyl)amino)-2-(4-fluorophenyl)ethyl)boronic acid]	< 5.30	6.62
COC(=O)N1CCN(C(C)(C)C=C(C#N)C(=O)N2CC[C@H](COC(=O)N[C@@H](Cc3ccccc3)B(O)O)C2)CC1 [Example 96, ((R)-1-(((((S)-1-(2-cyano-4-(4-(methoxycarbonyl)piperazin-1-yl)-4-methylpent-2-enoyl)pyrrolidin-3-yl)methoxy)carbonyl)amino)-2-phenylethyl)boronic acid]	5.79	8.06
C=CC(=O)N1CCC[C@H](OC(=O)N[C@@H](Cc2ccc(C(F)(F)F)cc2)B(O)O)C1 [Example 66, ((R)-1-(((((S)-1-acryloylpiperidin-3-yl)oxy)carbonyl)amino)-2-(4-(trifluoromethyl)phenyl)ethyl)boronic acid]	< 5.30	6.83
CC(C)(C=C(C#N)C(=O)N1CCCC[C@@H](OC(=O)N[C@@H](Cc2ccccc2)B(O)O)C1)N1CCOCC1 (single isomer, unassigned) [Example 103]	5.50	8.66

Molecules with a higher pIC50 [1], results first:

pIC50 [1]	pIC50 [2]	SMILES
5.83	8.59	C[C@@H]1CN(C(C)(C)C=C(C#N)C(=O)N2CCCC[C@@H](OC(=O)N[C@@H](Cc3ccccc3)B(O)O)C2)CCO1 [Example 131, ((R)-1-(((((R)-1-(2-cyano-4-methyl-4-((R)-2-methylmorpholino)pent-2-enoyl)azepan-3-yl)oxy)carbonyl)amino)-2-phenylethyl)boronic acid]
6.01	8.89	C[C@@H]1CN(C(C)(C)C=C(C#N)C(=O)N2C3CCC2(COC(=O)N[C@@H](Cc2ccccc2)B(O)O)CC3)C[C@@H](C)O1 [Example 126, ((R)-1-((((7-(2-cyano-4-((2R,6R)-2,6-dimethylmorpholino)-4-methylpent-2-enoyl)-7-azabicyclo[2.2.1]heptan-1-yl)methoxy)carbonyl)amino)-2-phenylethyl)boronic acid]
6.21	8.46	CC(C)(C=C(C#N)C(=O)N1C[C@H](OC(=O)N[C@@H](Cc2ccccc2)B(O)O)[C@@H](F)C1)N1CCC(F)(F)C1 [Example 109, ((R)-1-(((((3S,4S)-1-(2-cyano-4-(3,3-difluoropyrrolidin-1-yl)-4-methylpent-2-enoyl)-4-fluoropyrrolidin-3-yl)oxy)carbonyl)amino)-2-phenylethyl)boronic acid]
6.86	8.00	CC(C)(C=C(C#N)C(=O)N1CCO[C@H](CC(=O)N[C@@H](Cc2ccccc2)B(O)O)C1)N1CCC(F)(F)C1 [Example 58, ((R)-1-(2-((R)—4-(2-cyano-4-(3,3-difluoropyrrolidin-1-yl)-4-methylpent-2-enoyl)morpholin-2-yl)acetamido)-2-phenylethyl)boronic acid]
7.81	8.02	CC(C)C=C(C#N)C(=O)N1CCC[C@@H]1COC[C@H](NC(=O)c1cc(Cl)ccc1Cl)C(=O)N[C@@H](Cc1ccccc1)[B-]12OC(=O)C[N+]1(C)CC(=O)O2 (stereo partly drawn) [Example 19, 8-((R)-1-((S)-3-(((R)-1-(2-cyano-4-methylpent-2-enoyl)pyrrolidin-2-yl)methoxy)-2-(2,5-dichlorobenzamido)propanamido)-2-phenylethyl)-4-methyl-2,6-dioxohexahydro-[1,3,2]oxazaborolo[2,3-b][1,3,2]oxazaborol-4-ium-8-uide]
8.00	8.14	CC#CC(=O)N(C)c1cccc(C[C@H](NC(=O)c2cc(Cl)ccc2Cl)C(=O)N[C@@H](Cc2ccccc2)B(O)O)c1 [Example 18, ((R)-1-((S)-2-(2,5-dichlorobenzamido)-3-(3-(N-methylbut-2-ynamido)phenyl)propanamido)-2-phenylethyl)boronic acid]
